In series [1] the test system is COLO 205. In words: Antiproliferative activity against human COLO205 cells assessed as reduction in cell viability incubated for 48 hrs by MTT assay. To be noted: COLO 205, 48 h. The format is functional, cell-based.
Series [2] concerns HCT-116. In words: Antiproliferative activity against human HCT116 cells assessed as reduction in cell viability incubated for 48 hrs by MTT assay. It is filed as functional, cell-based. As to conditions: HCT-116, 48 h.
Series [3] deals with ATP-dependent translocase ABCB1 (Homo sapiens, UniProt P08183). In words: Induction of P-gp in human LS180 cells assessed as […] in intracellular accumulation of Rh123 at 100 nM using Rho123 as substrate preincubated for 48 hrs followed by addition of Rh123 and measured after 90 mins by fluorescence based assay relative to control. It is filed as cell-based. As to conditions: ls180, 48 h preincubation, then 1.5 h with Rh123, 0.1 µM.

For series [4], the system named is A549. In words: Antiproliferative activity against human A549 cells assessed as reduction in cell viability by MTT assay. The format is functional, cell-based. In general terms: Tetrazolium dyes change colour on reduction, which living cells bring about.
Series [5] concerns Bel-7402. In words: Antiproliferative activity against human Bel7402 cells assessed as reduction in cell viability by MTT assay. It is filed as functional, cell-based.
Series [6] concerns MCF7. In words: Antiproliferative activity against human MCF7 cells assessed as reduction in cell viability by MTT assay. It is filed as functional, cell-based.
Series [7] concerns A2780. In words: Antiproliferative activity against human A2780 cells assessed as reduction in cell viability by MTT assay. It is filed as functional, cell-based.
Series [8] concerns HCT-15. In words: Antiproliferative activity against human HCT15 cells assessed as reduction in cell viability incubated for 24 hrs by SRB assay. The format is functional, cell-based. To be noted: HCT-15, 24 h.
Series [9] deals with A549. In words: Antiproliferative activity against human A549 cells assessed as reduction in cell viability incubated for 24 hrs by SRB assay. It is filed as functional, cell-based. To be noted: A549, 24 h. On the technique in general: Sulforhodamine B stains cellular protein and so reports cell mass.
The subject of series [10] is SK-OV-3. In words: Antiproliferative activity against human SKOV3 cells assessed as reduction in cell viability incubated for 24 hrs by SRB assay. The format is functional, cell-based. To be noted: SK-OV-3, 24 h.
Series [11] concerns MCF7. In words: Antiproliferative activity against human MCF7 cells assessed as reduction in cell viability incubated for 24 hrs by SRB assay. The format is functional, cell-based. To be noted: MCF7, 24 h.
For series [12], the system named is SK-MEL-2. In words: Antiproliferative activity against human SK-MEL-2 cells assessed as reduction in cell viability incubated for 24 hrs by SRB assay. It is filed as functional, cell-based. To be noted: SK-MEL-2, 24 h.

Chain of ATP-dependent translocase ABCB1 (P08183 whole entry): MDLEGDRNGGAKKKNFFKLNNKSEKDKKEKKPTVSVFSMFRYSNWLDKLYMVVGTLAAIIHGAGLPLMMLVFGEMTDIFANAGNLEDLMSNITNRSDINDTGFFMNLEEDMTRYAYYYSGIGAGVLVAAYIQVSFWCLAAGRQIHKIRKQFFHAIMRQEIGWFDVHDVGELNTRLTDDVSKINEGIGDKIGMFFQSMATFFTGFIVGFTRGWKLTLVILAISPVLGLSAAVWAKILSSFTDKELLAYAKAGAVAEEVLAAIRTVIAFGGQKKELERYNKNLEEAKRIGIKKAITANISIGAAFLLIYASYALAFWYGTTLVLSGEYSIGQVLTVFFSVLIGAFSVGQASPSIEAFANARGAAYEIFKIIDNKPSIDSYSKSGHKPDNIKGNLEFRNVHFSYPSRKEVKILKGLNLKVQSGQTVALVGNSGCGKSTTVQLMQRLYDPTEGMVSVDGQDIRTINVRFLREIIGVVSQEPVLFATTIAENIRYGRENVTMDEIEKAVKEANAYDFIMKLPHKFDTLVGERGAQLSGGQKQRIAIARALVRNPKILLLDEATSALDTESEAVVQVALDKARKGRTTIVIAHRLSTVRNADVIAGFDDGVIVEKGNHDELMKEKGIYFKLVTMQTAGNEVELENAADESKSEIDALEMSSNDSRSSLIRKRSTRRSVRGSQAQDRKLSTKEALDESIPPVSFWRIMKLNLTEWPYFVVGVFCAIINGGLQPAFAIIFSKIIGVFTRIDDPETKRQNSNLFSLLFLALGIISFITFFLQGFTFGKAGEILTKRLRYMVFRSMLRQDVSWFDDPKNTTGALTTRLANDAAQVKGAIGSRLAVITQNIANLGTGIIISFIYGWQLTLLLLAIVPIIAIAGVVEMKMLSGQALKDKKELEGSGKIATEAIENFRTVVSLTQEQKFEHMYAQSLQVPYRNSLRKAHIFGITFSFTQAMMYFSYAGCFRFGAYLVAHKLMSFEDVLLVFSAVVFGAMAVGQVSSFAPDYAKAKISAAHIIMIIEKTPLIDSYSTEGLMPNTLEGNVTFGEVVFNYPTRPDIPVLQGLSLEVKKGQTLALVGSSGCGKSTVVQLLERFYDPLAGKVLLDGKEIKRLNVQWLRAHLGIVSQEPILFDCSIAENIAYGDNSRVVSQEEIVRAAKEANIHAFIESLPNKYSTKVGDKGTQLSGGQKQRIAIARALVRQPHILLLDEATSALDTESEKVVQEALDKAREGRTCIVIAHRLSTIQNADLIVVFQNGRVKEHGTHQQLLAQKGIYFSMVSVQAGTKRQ

With `COc1cc2c(c(OC)c1OC)-c1ccc(=N)c(O)cc1[C@@H](NC(C)=O)CC2`, the figures for the IC50 in series [1] and in series [2] were 120 nM and 150 nM, respectively. Besides, in series [3], the Activity is listed as 107.41%.

In the case of `CCN(CC)c1ccc2c(cc1=O)[C@@H](NC(C)=O)CCc1cc(OC)c(OC)c(OC)c1-2`, the IC50 (commonly the point on the concentration scale where inhibition reaches its midpoint) worked out at 430 nM in series [1] and 800 nM in [2]. Also, in series [3], the Activity was 95.38%.

With `COc1cc2c(c(OC)c1OC)-c1ccc(N3CCNCC3)c(=O)cc1[C@@H](NC(C)=O)CC2`, the IC50 in series [1] is 8000 nM; in series [2], above 10000 nM. For the same compound, the Activity in series [3] was found to be 95.52%.

Take `CNc1ccc2c(cc1=O)[C@@H](NC(=O)CCC(=O)OCCCCO[N+](=O)[O-])CCc1cc(OC)c(OC)c(OC)c1-2`: the IC50 was determined as 12 nM in [4], 13 nM in series [5], 8 nM in [6] and 10 nM in series [7].

Take `CNc1ccc2c(cc1=O)[C@@H](NC(=O)CCC(=O)OCCCO[N+](=O)[O-])CCc1cc(OC)c(OC)c(OC)c1-2`: the IC50 in series [4] is 88 nM; in series [5], 85 nM; in series [6] it was 135 nM; in [7], 99 nM.

With `COc1cc2c(c(OC)c1OC)-c1ccc(SC)c(=O)cc1[C@@H](NC(=O)CCC1=C(C)c3cc4[nH]c(cc5nc(cc6[nH]c(cc1n3)c(CCC(=O)N[C@H]1CCc3cc(OC)c(OC)c(OC)c3-c3ccc(SC)c(=O)cc31)c6C)C(C(C)O)=C5C)c(C(C)O)c4C)CC2` (some centres not stated), the IC50 stood at 4840 nM in series [8]; 1680 nM in series [9]; 2860 nM in [10]; 3220 nM in [11]; 2840 nM in series [12].

Take `COc1cc2c(c(OC)c1OC)-c1ccc(N3CCC(N)CC3)c(=O)cc1[C@@H](NC(C)=O)CC2`: the figures for the IC50 in series [1] and in series [2] were 5000 nM and 10000 nM, respectively. For the same compound, the Activity in series [3] was 102.04%.

With `COc1cc2c(c(OC)c1OC)-c1ccc(N3CCCCC3)c(=O)cc1[C@@H](NC(C)=O)CC2`, the values for the IC50 in [1] and in series [2] were 1800 nM and 3000 nM, respectively. Further, in [3], the Activity is 119.01%.

As for `CCOC(=O)C1CCN(c2ccc3c(cc2=O)[C@@H](NC(C)=O)CCc2cc(OC)c(OC)c(OC)c2-3)CC1`, the IC50 in [1] is 8000 nM; in series [2], above 10000 nM. In addition, in series [3], the Activity is listed as 95.49%.

Regarding `COc1cc2c(c(OC)c1OC)-c1ccc(N3CCCC3)c(=O)cc1[C@@H](NC(C)=O)CC2`, the IC50 in [1] turned out to be 240 nM; in series [2] it was 300 nM. Further, the Activity in [3] worked out at 107.12%.

For `CC/C=C\C/C=C\C/C=C\C/C=C\C/C=C\C/C=C\CCC(=O)N[C@H]1CCc2cc(OC)c(OC)c(OC)c2-c2ccc(SC)c(=O)cc21`, the IC50 in series [8] worked out at 392 nM; in [9], 917 nM; in [10] it was 2630 nM; in series [11], 494 nM; in [12] it was 2000 nM.

In the case of `COc1cc2c(c(OC)c1OC)-c1ccc(Nc3ccc4c(c3)OCO4)c(=O)cc1[C@@H](NC(C)=O)CC2`, the values for the IC50 in series [1] and in series [2] were 3000 nM and 4000 nM, respectively. The Activity in [3] was found to be 102.66%.

As to `COc1cc2c(c(OC)c1OC)-c1ccc(N3CCN(C(=O)OC(C)(C)C)CC3)c(=O)cc1[C@@H](NC(C)=O)CC2`, the values for the IC50 in series [1] and in series [2] were 3000 nM and 4000 nM, respectively. In addition, the Activity in series [3] worked out at 90.94%.

Regarding `CNc1ccc2c(cc1=O)[C@@H](NC(=O)CCC(=O)OCCO[N+](=O)[O-])CCc1cc(OC)c(OC)c(OC)c1-2`, the IC50 in [4] is 106 nM; in series [5], 202 nM; in series [6], 103 nM; in series [7], 104 nM.

Regarding `COc1cc2c(c(OC)c1OC)-c1ccc(N3CCN(C)CC3)c(=O)cc1[C@@H](NC(C)=O)CC2`, the results for the IC50 in series [1] and in series [2] were 1000 nM and 3000 nM, respectively. Also, in [3], the Activity was determined as 102.82%.

Consider `CCCCCCCCCCCCCC[C@H]1OC(C)(C)O[C@H]1[C@@H](NC(=O)OC(C)(C)C)C(=O)N[C@H]1CCc2cc(OC)c(OC)c(OC)c2-c2ccc(SC)c(=O)cc21`, for which the half-inhibitory concentration (IC50) in [8] amounted to 204 nM; in series [9], 228 nM; in series [10], 676 nM; in series [11], 303 nM; in series [12], 130 nM.

Take `COc1cc2c(c(OC)c1OC)-c1ccc(SC)c(=O)cc1[C@@H](NC(=O)CC[C@H](NC(=O)c1ccc(NCc3cnc4nc(N)nc(O)c4n3)cc1)C(=O)O)CC2`: the values for the IC50 in [8], in series [9] and in series [11] were 1160 nM, 4960 nM and 697 nM, respectively.

Turning to `C=C(C)[C@@H]1CC=C(C(=O)N[C@H]2CCc3cc(OC)c(OC)c(OC)c3-c3ccc(SC)c(=O)cc32)CC1`, the IC50 in series [8] is 8.1 nM; in series [9] it was 7.5 nM; in series [10], 17.2 nM; in series [11], 5.2 nM; in [12], 17.9 nM.

Turning to `COc1cc2c(c(OC)c1OC)-c1ccc(N3CCOCC3)c(=O)cc1[C@@H](NC(C)=O)CC2`, the results for the IC50 in [1] and in series [2] were 1200 nM and 5000 nM, respectively. In addition, in series [3], the Activity is recorded as 95.97%.

As for `COc1cc2c(c(OC)c1OC)-c1ccc(N3CCC4c5ccccc5NC4C3)c(=O)cc1[C@@H](NC(C)=O)CC2` (some centres not stated), the IC50 came to 800 nM in series [1] and 3000 nM in series [2]. In addition, in series [3], the Activity is given as 119.7%.

As for `COc1cc2c(c(OC)c1OC)-c1ccc(N3CCC(c4ccccc4)CC3)c(=O)cc1[C@@H](NC(C)=O)CC2`, the IC50 in series [1] amounted to 800 nM; in [2], 1000 nM. For the same compound, in series [3], the Activity is 101.03%.

In the case of `COc1cc2c(c(OC)c1OC)-c1ccc(N3CCC[C@@H]3CO)c(=O)cc1[C@@H](NC(C)=O)CC2`, the IC50 in series [1] was found to be 8000 nM; in series [2], 10000 nM. Besides, the Activity in series [3] was 86.53%.

Take `COc1cc2c(c(OC)c1OC)-c1ccc(SC)c(=O)cc1[C@@H](NC(=O)[C@H](O)[C@@H](O)[C@H](O)[C@H](O)CO)CC2`: the IC50 in [8] was 18.7 nM; in [9] it was 14.2 nM; in [10], 29.8 nM; in series [11] it was 7.8 nM; in series [12], 12.3 nM.

Consider `COc1cc2c(c(OC)c1OC)-c1ccc(Nc3ccc(Cl)c(C(F)(F)F)c3)c(=O)cc1[C@@H](NC(C)=O)CC2`, for which the IC50 in series [1] stood at 30 nM; in [2], 40 nM. For the same compound, the Activity in series [3] was 90.29%.

As to `COc1cc2c(c(OC)c1OC)-c1ccc(Nc3ccc(F)c(Cl)c3)c(=O)cc1[C@@H](NC(C)=O)CC2`, the IC50 in series [1] stood at 500 nM; in series [2], 700 nM. Moreover, the Activity in [3] is 90.05%.

`CNc1ccc2c(cc1=O)[C@@H](NC(=O)CCC(=O)OCCCCCO[N+](=O)[O-])CCc1cc(OC)c(OC)c(OC)c1-2`: the IC50 in [4] is 86 nM; in series [5] it was 85 nM; in series [6] it was 100 nM; in series [7], 96 nM.

Regarding `COc1cc2c(c(OC)c1OC)-c1ccc(SC)c(=O)cc1[C@@H](NC(=O)Cc1ccccc1Nc1c(Cl)cccc1Cl)CC2`, the IC50 in series [8] turned out to be 306 nM; in [9] it was 520 nM; in [10] it was 1500 nM; in series [11] it was 296 nM; in series [12], 1050 nM.

Regarding `COc1cc(/C=C/C(=O)N[C@H]2CCc3cc(OC)c(OC)c(OC)c3-c3ccc(SC)c(=O)cc32)ccc1O`, the IC50 in series [8] came out at 10.8 nM; in [9] it was 5.8 nM; in [10], 24.8 nM; in series [11], 5.6 nM; in [12], 16.6 nM.

These data come from ChEMBL document CHEMBL4321828, “Recent developments on (-)-colchicine derivatives: Synthesis and structure-activity relationship” (Eur J Med Chem, 2020).
